The numbers were not newly measured in article PMC9775177, “NLRP3-Inflammasome Inhibition with IZD334 Does Not Reduce Cardiac Damage in a Pig Model of Myocardial Infarction” (Biomedicines, 2022), which cites them from elsewhere.

For one data set, the system named is IR injury in mice. Further details: method as in PMID 30747785. As to conditions: cited from earlier work.
Another data set relates to large animal model of MI. Set-up: method as in PMID 27432019. As to conditions: cited from earlier work.
Setting [1] is: large animal model, 7 days following MI.

For `CS(=O)(=O)CCC#N` [OLT1177], in the data set on IR injury in mice, the infarct development entry is on record as “limited infarct development” and the left ventricular dysfunction entry is listed as “prevented left ventricular dysfunction”.
`CC(C)(O)c1coc(S(=O)(=O)NC(=O)Nc2c3c(cc4c2CCC4)CCC3)c1` [MCC950]: in the data set on large animal model of MI (setting [1]), the “IS (infarct size)” value was “dose-dependently reduced IS” and the LV function entry was “improvement in LV function”. Also, the “circulating markers of inflammation” value with large animal model of MI (pigs treated with MCC950) is “only modestly lower”.
